This is an account of results in ChEMBL document CHEMBL3526083, “Prediction of relative in vivo metabolite exposure from in vitro data using two model drugs: dextromethorphan and omeprazole” (Drug Metab Dispos, 2012).

The target in data set [1] is T1, UDP-glucuronosyltransferase 2B17 (Homo sapiens, UniProt O75795).
T1 sequence (O75795 whole entry): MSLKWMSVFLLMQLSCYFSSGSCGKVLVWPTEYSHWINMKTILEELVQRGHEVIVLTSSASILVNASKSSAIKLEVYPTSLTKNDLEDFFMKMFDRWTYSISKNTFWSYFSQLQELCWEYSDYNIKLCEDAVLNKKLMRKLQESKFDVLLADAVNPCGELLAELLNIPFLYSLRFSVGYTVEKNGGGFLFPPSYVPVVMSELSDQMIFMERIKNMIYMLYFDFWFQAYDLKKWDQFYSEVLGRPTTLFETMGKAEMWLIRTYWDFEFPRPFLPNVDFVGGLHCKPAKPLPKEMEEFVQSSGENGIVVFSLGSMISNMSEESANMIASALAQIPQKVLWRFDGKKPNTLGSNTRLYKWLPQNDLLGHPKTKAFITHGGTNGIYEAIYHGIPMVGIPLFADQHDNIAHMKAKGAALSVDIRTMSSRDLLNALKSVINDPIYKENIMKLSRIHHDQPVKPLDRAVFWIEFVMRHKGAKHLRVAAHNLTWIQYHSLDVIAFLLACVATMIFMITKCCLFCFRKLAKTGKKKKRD
Put plainly: Drug metabolism assessed as recombinat UGT2B17 (unknown origin) -mediated dextrophan-O-glucuronide formation. In kind it is ADME.

Data set [2] addresses T2, UDP-glucuronosyltransferase 1A4 (Homo sapiens, UniProt P22310).
T2 sequence (P22310 whole entry): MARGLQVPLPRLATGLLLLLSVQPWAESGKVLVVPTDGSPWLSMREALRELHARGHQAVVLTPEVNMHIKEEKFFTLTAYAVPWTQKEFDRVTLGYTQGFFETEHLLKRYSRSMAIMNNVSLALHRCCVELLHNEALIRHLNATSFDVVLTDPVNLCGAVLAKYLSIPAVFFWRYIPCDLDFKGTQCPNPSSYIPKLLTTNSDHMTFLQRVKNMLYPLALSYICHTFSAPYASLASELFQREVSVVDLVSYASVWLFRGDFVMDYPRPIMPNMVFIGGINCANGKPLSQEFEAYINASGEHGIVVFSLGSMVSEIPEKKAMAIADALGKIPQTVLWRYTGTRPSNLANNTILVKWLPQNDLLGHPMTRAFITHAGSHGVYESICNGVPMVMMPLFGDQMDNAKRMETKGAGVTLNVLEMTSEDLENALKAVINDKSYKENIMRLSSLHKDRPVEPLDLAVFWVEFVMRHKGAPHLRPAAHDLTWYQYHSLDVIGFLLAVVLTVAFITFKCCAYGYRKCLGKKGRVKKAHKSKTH
Put plainly: Drug metabolism assessed as recombinat UGT1A4 (unknown origin) -mediated dextrophan-O-glucuronide formation. In kind it is ADME.

The target of data set [3] is T3, UDP-glucuronosyltransferase 1A6 (Homo sapiens, UniProt P19224).
T3 sequence (P19224 whole entry): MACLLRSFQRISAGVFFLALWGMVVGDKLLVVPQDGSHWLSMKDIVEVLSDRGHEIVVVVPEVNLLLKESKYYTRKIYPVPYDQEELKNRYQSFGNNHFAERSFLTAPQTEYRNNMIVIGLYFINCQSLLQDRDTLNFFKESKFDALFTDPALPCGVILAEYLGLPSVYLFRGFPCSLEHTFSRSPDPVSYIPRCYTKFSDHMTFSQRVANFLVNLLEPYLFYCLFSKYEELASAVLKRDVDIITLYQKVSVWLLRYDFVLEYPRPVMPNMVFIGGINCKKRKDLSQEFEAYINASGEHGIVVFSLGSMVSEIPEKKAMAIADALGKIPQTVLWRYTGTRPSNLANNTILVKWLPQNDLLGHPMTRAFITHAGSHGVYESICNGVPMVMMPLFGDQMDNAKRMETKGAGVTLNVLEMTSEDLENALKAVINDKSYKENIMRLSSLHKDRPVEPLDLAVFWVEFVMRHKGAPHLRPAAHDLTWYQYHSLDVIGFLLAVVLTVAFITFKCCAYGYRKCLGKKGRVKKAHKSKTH
Put plainly: Drug metabolism assessed as recombinat UGT1A6 (unknown origin) -mediated dextrophan-O-glucuronide formation. In kind it is ADME.

The subject of data set [4] is Homo sapiens. Description: Ratio of AUC for compound to dexttomethorphan in human treated with 30 to 60 mg, po dexttomethorphan. Conditions: in vivo. In kind it is ADME, organism-based.
Data set [5] deals with Liver microsome. Description: Drug metabolism in human liver microsomes assessed as 3-hydroxymorphinan formation. In kind it is ADME. (Liver microsomes are vesicles of endoplasmic reticulum, rich in cytochrome P450 enzymes.)
For data set [6], the system named is Liver microsome. Description: Drug metabolism in human liver microsomes assessed as 3-hydroxymorphinan formation measured as microsomal fraction unbound. In kind it is ADME.
Data set [7] concerns Liver microsome. Description: Drug metabolism in human liver microsomes assessed as 3-hydroxymorphinan formation measured as intrinsic clearance. In kind it is ADME.
Data set [8] relates to Liver microsome. Put plainly: Drug metabolism in human liver microsomes assessed as 3-hydroxymorphinan formation measured as plasma fraction unbound. In kind it is ADME, cell-free.
The test system of data set [9] is Liver microsome. Put plainly: Drug metabolism in human liver microsomes assessed as dextrophan-O-glucuronide formation measured as microsomal fraction unbound. In kind it is ADME.
For data set [10], the system named is Liver microsome. Description: Drug metabolism in human liver microsomes assessed as dextrophan-O-glucuronide formation measured per mg of microsomal protein in presence of 2% BSA. In kind it is ADME.
Data set [11] deals with Liver microsome. Description: Drug metabolism in human liver microsomes assessed as dextrophan-O-glucuronide formation in presence of 2% BSA. In kind it is ADME.
In data set [12] the test system is Liver microsome. Put plainly: Drug metabolism in human liver microsomes assessed as dextrophan-O-glucuronide formation measured as plasma fraction unbound in presence of 2% BSA. In kind it is ADME.
In data set [13] the target is T4, UDP-glucuronosyltransferase 2B15 (Homo sapiens, UniProt P54855).
T4 sequence (P54855 whole entry): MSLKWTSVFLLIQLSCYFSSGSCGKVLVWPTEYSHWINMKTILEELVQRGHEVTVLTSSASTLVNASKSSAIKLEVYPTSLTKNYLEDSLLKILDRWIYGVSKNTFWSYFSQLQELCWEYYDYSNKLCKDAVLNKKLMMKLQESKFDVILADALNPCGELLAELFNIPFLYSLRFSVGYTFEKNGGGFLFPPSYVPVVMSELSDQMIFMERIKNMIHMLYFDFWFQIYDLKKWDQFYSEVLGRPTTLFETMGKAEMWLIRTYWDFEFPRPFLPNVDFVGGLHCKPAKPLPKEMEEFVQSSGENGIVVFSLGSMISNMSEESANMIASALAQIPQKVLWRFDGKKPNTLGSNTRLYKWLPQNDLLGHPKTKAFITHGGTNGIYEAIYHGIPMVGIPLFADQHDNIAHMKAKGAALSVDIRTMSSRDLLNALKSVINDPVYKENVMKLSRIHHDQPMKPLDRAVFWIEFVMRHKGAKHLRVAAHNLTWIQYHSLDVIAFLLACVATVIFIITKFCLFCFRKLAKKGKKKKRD
Put plainly: Drug metabolism assessed as recombinat UGT2B15 (unknown origin) -mediated dextrophan-O-glucuronide formation. In kind it is ADME.

The test system of data set [14] is Liver microsome. Description: Drug metabolism in human liver microsomes assessed as 3-hydroxymorphinan formation measured per mg of microsomal protein. In kind it is ADME.

In general, Km refers to the concentration of substrate that gives half-maximal velocity. Broadly, the Vmax is the rate approached at saturating substrate. Take `CN1CC[C@@]23CCCC[C@@H]2[C@@H]1Cc1ccc(O)cc13` [DEXTRORPHAN]: the Drug metabolism result in data set [1] is recorded as “metabolite_detected”; in data set [2], “metabolite_not_detected”; in data set [3], “metabolite_not_detected”; in data set [13], “metabolite_detected”. Besides, the “Ratio AUC” value in data set [4] is on record as 0.61. Besides, the Michaelis constant (Km) in data set [5] was 910 µM; in data set [11], 210 µM. The Fu in [6] was 1; in data set [8], 0.55; in [9] it was 1; in data set [12] it was 0.55. The CLH in data set [7] was found to be 0.88 µL/min/mg. Besides, the maximal velocity (Vmax) in data set [10] is reported as 2.3 nmol/min; in data set [14], 0.8 nmol/min.
